Source: patent publication US20220162610A1, “NOVEL RNA TRANSCRIPT” (PTC Therapeutics, Inc., priority 2020, published 2022)

Legend:
HTT mRNA [1] = experiment: RT-qPCR quantification of HTT mRNA in HD patient fibroblasts, 24 h; type: cell-based, human; conditions: fibroblasts derived from HD patients
Experimental: Test compounds were serially diluted 3-fold in 100% DMSO to generate a 7-point concentration curve. A solution of test compound (500 nl, 200× in DMSO) was added to each test well with Acoustic Transfer System. Fibroblasts were seeded in 96-well flat-bottomed plates (Thermo Fisher Scientific) at 1×10^4 cells/well in 100 μl of culture medium containing the test compound or DMSO vehicle control and incubated for 24 hours (37° C., 5% CO2, 100% relative humidity). After removal of the supernatant, cells were lysed in RNA lysis buffer (1M Tris-HCL pH 7.4, 5M NaCl, 10% IGEPAL®CA-630; 50 μL/well) for 1 minute at RT, before 50 μL of chilled nuclease free water was added to each well; plates were then transferred immediately onto ice before storing at −80° C. overnight.
Cell lysates were assayed by quantitative reverse transcriptase polymerase chain reaction (RT-qPCR) to measure mRNA levels of HTT and glyceraldehyde 3-phosphate dehydrogenase (GAPDH) in the presence or absence of the test compound.
A reverse transcriptase quantitative polymerase chain reaction (RT-qPCR) reaction mixture of primers and probe sets for HTT and GAPDH was prepared according to TABLE III. […]

HTT mRNA [2] = experiment: RT-qPCR of HTT mRNA in HD patient B lymphocytes (GM04856); type: cell-based, human
Experimental: B lymphocytes (GM04856 cells) were plated in 6-well plates at 5×10^5 cells/well in 2 mL of 10% FBS, DMEM and incubated for 6 hours (37° C., 5% CO2, 100% relative humidity). Cells were then treated with HTT-C1 at 125 nM (in 0.5% DMSO) in triplicate for 24 hours. RNA was purified with the RNeasy Mini Kit (Qiagen) according to the manufacturer's protocol. Samples were prepared for RT-PCR (described previously) using 0.04 μL of each primer (at 100 μM). For reverse transcription and PCR, the following steps were performed: RT step: 48° C. (15 min); PCR steps: Step 1: 95° C. (10 min), Step 2: 95° C. (30 sec), Step 3: 55° C. (30 sec), Step 4: 68° C. (1 min); Steps 2 to 4 were repeated for 34 cycles, then held at 4° C. PCR products were separated on 2% agarose E-gels, stained with ethidium bromide and visualized using a UVP gel imager.
To test if the small molecule-induced spliced transcripts are unstable due to nonsense-mediated decay (NMD), GM04856 lymphoblast cells were treated with cycloheximide (CHX). First cells were treated with DMSO or 250 nM HTT-C1 for 18 h. DMSO or 10 uM CHX was then added, and cells harvested for RNAs after 2 h, 4 h, and 8 h.

## CC1(C)CC(Oc2ccc(-c3ccc(-c4ccnc(O)c4)cc3O)nn2)CC(C)(C)N1 [HTT-C1]
HTT mRNA [1]
  amount of HTT mRNA: dose-dependent decrease
HTT mRNA [2]; 250 nM, GM04856 lymphoblast cells, 18 h plus 2-8 h
  reduction in HTT mRNA (RT-qPCR): ~80%
HTT mRNA [2]; 24-hour treatment, 125 nM, B-lymphocytes from an HD patient
  lowering of the amount of HTT mRNA as compared to the DMSO control: about 85%

## CCN1CCC(c2cc(C)c3nc(-c4ccc5nn(C)cc5c4)cc(=O)n3c2)CC1 [HTT-D1]
HTT mRNA [1]
  amount of HTT mRNA: dose-dependent decrease
